From ChEMBL document CHEMBL1127655, “The stabilization of DNA topoisomerase II cleavable complex by mitonafide analogs” (Bioorg Med Chem Lett, 1994)

Experiments:
Format in all cases: nucleic-acid assay
Details in all cases: Bos taurus
Calf thymus DNA = test: Calf thymus DNA binding affinity compared to ethidium bromide
Nucleic Acid [1] = test: DNA binding affinity by a decrease in fluorescence of an ethidium bromide calf thymus DNA solution; (10%)
Nucleic Acid [2] = test: DNA binding affinity by a decrease in fluorescence of an ethidium bromide calf thymus DNA solution; (25%)
Nucleic Acid [3] = test: DNA binding affinity by a decrease in fluorescence of an ethidium bromide calf thymus DNA solution; (41%)
Nucleic Acid [4] = test: DNA binding affinity by a decrease in fluorescence of an ethidium bromide calf thymus DNA solution; (39%)
Nucleic Acid [5] = test: DNA binding affinity by a decrease in fluorescence of an ethidium bromide calf thymus DNA solution; (36%)
Nucleic Acid [6] = test: DNA binding affinity by a decrease in fluorescence of an ethidium bromide calf thymus DNA solution (0%)
Nucleic Acid [7] = test: DNA binding affinity by a decrease in fluorescence of an ethidium bromide calf thymus DNA solution; (33%)
Nucleic Acid [8] = test: DNA binding affinity by a decrease in fluorescence of an ethidium bromide calf thymus DNA solution; (12%)
Nucleic Acid [9] = test: DNA binding affinity by a decrease in fluorescence of an ethidium bromide calf thymus DNA solution; (34%)

Compound	C50 (Calf thymus DNA) [µM]	further results
CNCCN1C(=O)c2cccc3cc([N+](=O)[O-])cc(c23)C1=O	14	
O=C1c2cccc3cc([N+](=O)[O-])cc(c23)C(=O)N1CCc1ccccn1		C50 (Nucleic Acid [1]): > 100 µM
CNCCN1C(=O)c2cccc3c([N+](=O)[O-])ccc(c23)C1=O	19	
O=C1c2cccc3cc([N+](=O)[O-])cc(c23)C(=O)N1CCO		C50 (Nucleic Acid [2]): > 100 µM
CNCCN1C(=O)c2cccc3cccc(c23)C1=O		C50 (Nucleic Acid [3]): > 100 µM
CCN(CC)CCN1C(=O)c2cccc3c([N+](=O)[O-])ccc(c23)C1=O	28	
O=C1c2cccc3cc([N+](=O)[O-])cc(c23)C(=O)N1CCN1CCNCC1		C50 (Nucleic Acid [4]): > 100 µM
CN(C)CCCN1C(=O)c2cccc3c([N+](=O)[O-])ccc(c23)C1=O		C50 (Nucleic Acid [5]): > 100 µM
O=C1c2cccc3cc([N+](=O)[O-])cc(c23)C(=O)N1CCN1CCCC1	10	
O=C1c2cccc3c([N+](=O)[O-])ccc(c23)C(=O)N1CCc1ccccn1		C50 (Nucleic Acid [6]): > 100 µM
CCN(CC)CCN1C(=O)c2cccc3cc([N+](=O)[O-])cc(c23)C1=O	35	
NCCN1C(=O)c2cccc3cccc(c23)C1=O	50	
NCCN1C(=O)c2cccc3c([N+](=O)[O-])ccc(c23)C1=O	17	
O=C1c2cccc3c([N+](=O)[O-])ccc(c23)C(=O)N1CCN1CCCC1	11	
CN(C)CCN1C(=O)c2cccc3cccc(c23)C1=O	100	
CN(C)CCN1C(=O)c2cccc3c([N+](=O)[O-])ccc(c23)C1=O		C50 (Nucleic Acid [7]): > 100 µM
CN(C)CCN1C(=O)c2cccc3cc([N+](=O)[O-])cc(c23)C1=O	11	
CN(C)CCCN1C(=O)c2cccc3cc([N+](=O)[O-])cc(c23)C1=O	16	
O=C1c2cccc3cccc(c23)C(=O)N1CCO		C50 (Nucleic Acid [8]): > 100 µM
CCN(CC)CCN1C(=O)c2cccc3cccc(c23)C1=O	100	
O=C1c2cccc3c([N+](=O)[O-])ccc(c23)C(=O)N1CCO		C50 (Nucleic Acid [9]): > 100 µM
